Values after ≈ are worked out from the molar mass of the structure shown. Read-outs that look alike come from different tables or passages of the source.
Tests used:
[1] = tested on: polyA-polyU; experiment: UV–Vis titration with polyA-polyU (Scatchard); format: binding; conditions: for Hypochromic effect H/%, polyA-polyU (from experimental data): footnote e: calculated from experimental data; for log Ks, polyA-polyU: binding constant, Scatchard
Outline: (§1)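 Polynucleotides titrated into compound at 1.48 × 10^−5 mol dm^−3 in PBS (I = 0.05 mol dm^−3, pH 7.0), with UV–Vis spectra in 1 cm quartz cells; ctDNA sonicated and filtered, concentration as nucleobases. Ks and n from Scatchard analysis, in some cases only from data at r ≥ 0.1.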

[2] = tested on: E. coli ATCC 25925; experiment: Broth microdilution MIC, E. coli ATCC 25925; format: cell-based; conditions: Escherichia coli, ATCC25925; Table S2
Outline: (§2)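 CLSI broth microdilution; cation-adjusted (Ca^2+, Mg^2+) Mueller–Hinton broth; triplicate; read-out = minimum inhibitory concentration.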

[3] = tested on: bloodstream form T. brucei (strain 221); experiment: Anti-trypanosomal screening, resazurin; format: cell-based; conditions: Trypanosoma brucei, mean of triplicate ± SEM
Outline: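 Parasites grown in modified Iscove's medium with compound in triplicate; resazurin added at 48 h and plates read after a further 16 h.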

[4] = tested on: polyA-polyU (RNA, polymer) A/U; experiment: UV-Vis titration, Scatchard; conditions: PBS
[5] = tested on: P. aeruginosa ATCC 27853; experiment: Broth microdilution MIC, P. aeruginosa ATCC 27853; format: cell-based; conditions: Pseudomonas aeruginosa, ATCC27853; Table S2
Outline: as §2

[6] = target: polyC-polyG; experiment: UV–Vis titration with polyC-polyG (Scatchard); format: binding; conditions: PBS, pH 7; for log Ks, polyC-polyG: binding constant, Scatchard; for Hypochromic effect H/%, polyC-polyG: UV–Vis titration, calculated by Scatchard equation
Outline: as §1

[7] = tested on: S. aureus ATCC 25923; experiment: Broth microdilution MIC, S. aureus ATCC 25923; format: cell-based; conditions: Staphylococcus aureus, ATCC25923; Table S2
Outline: as §2

[8] = tested on: calf thymus ctDNA; experiment: UV–Vis titration with ctDNA (Scatchard); format: binding; conditions: for Hypochromic effect H/%, ctDNA (from experimental data): footnote e: calculated from experimental data
Outline: as §1

[9] = tested on: A. baumannii ATCC 19606; experiment: Broth microdilution MIC, A. baumannii ATCC 19606; format: cell-based; conditions: Acinetobacter baumannii, ATCC19606; Table S2
Outline: as §2

[10] = tested on: E. faecalis ATCC 29212; experiment: Broth microdilution MIC, E. faecalis ATCC 29212; format: cell-based; conditions: Enterococcus faecalis, ATCC29212; Table S2
Outline: as §2

[11] = tested on: E. faecium VRE; experiment: Broth microdilution MIC, VRE clinical strain; format: cell-based; conditions: Enterococcus faecium
Outline: (§3)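 MICs were set by CLSI broth microdilution in cation (Ca2+, Mg2+)-adjusted Mueller–Hinton broth, in triplicate. Panel: S. aureus ATCC 25923, MRSA, MSSA, E. faecalis, VRE E. faecium, E. coli ATCC 25925, P. aeruginosa ATCC 27853, A. baumannii ATCC 19606 and ESBL K. pneumoniae ATCC 27736.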

[12] = tested on: Gram-positive and Gram-negative bacteria; experiment: Anti-microbial activity overall (all tested bacteria); format: cell-based; conditions: summary over tested strains; read-out: MIC, anti-microbial activities overall
Procedure: The compounds were evaluated for their in vitro anti-bacterial activity against Gram-positive bacteria: S. aureus (ATCC 25923), MRSA, methicillin-sensitive S. aureus (MSSA), E. faecalis, vancomycin-resistant E. faecium (VREF), and Gram-negative bacteria: E. coli (ATCC 25925), P. aeruginosa (ATCC 27853), A. baumannii (ATCC 19606) and ESBL-producing K. pneumoniae (ATCC 27736). Standard broth microdilution method as recommended in guidelines of Clinical and Laboratory Standards Institute[61] ^, [65] ^, [66] was applied and the minimum inhibitory concentration (MIC) of compounds was tested. In short, testing was performed in U-bottomed 96-well sterile plastic microdilution trays (Falcon 3077, Becton Dickinson Labware, Franklin Lakes, NJ) in cation (Ca^2+ and Mg^2+) adjusted Mueller–Hinton broth medium (Becton Dickinson and Co., Cockeysville, MD). All testings were performed in triplicate.

[13] = tested on: K. pneumonia ATCC 700803; experiment: Broth microdilution MIC, K. pneumoniae ATCC 700803; format: cell-based; conditions: Klebsiella pneumoniae, ATCC700803; Table S2
Outline: as §2

[14] = tested on: polyG-polyC (polyC-polyG) (RNA, polymer) G/C; experiment: UV-Vis titration, Scatchard; conditions: PBS, I = 0.05 M (Table 1 says I = 0.015 M), cations not specified, I = 0.015 M (Methods: 0.05 M)
[15] = tested on: S. aureus MSSA; experiment: Broth microdilution MIC, MSSA clinical strain; format: cell-based; conditions: Staphylococcus aureus
Outline: as §3

[16] = tested on: S. aureus MRSA; experiment: Broth microdilution MIC, MRSA clinical strain; format: cell-based; conditions: Staphylococcus aureus, antibiotic-resistant clinical strain
Outline: as §3

[17] = tested on: bloodstream form T. brucei (strain 221); conditions: read-out: T. brucei IC50 (reference drug), ref [83]; cited from earlier work
[18] = tested on: L6 cells (a rat myoblast line); experiment: Cytotoxicity against mammalian cells, resazurin; format: cell-based; conditions: L6, 144 h, 6 d incubation
Procedure: Cytotoxicity against mammalian cells was also assessed using microtitre plates. Briefly, L6 cells (a rat myoblast line) were seeded at 1 × 10^4 ml^−1 in 200 µl of growth medium containing different compound concentrations. The plates were then incubated for 6 d at 37 °C and 20 µl resazurin added to each well. After a further 8 h incubation, the fluorescence was determined using a Spectramax plate reader, as outlined above.

[19] = tested on: polyA-polyU; experiment: Thermal melting (ΔTm) of polyA-polyU; format: binding; conditions: for ΔTm, polyA-polyU, r = 0.1: PBS, pH 7; for ΔTm, polyA-polyU, r = 0.3 / ΔTm, polyA-polyU, r = 0.5: first melting midpoint; for ΔTm, polyA-polyU, r = 0.3, second melting midpoint / ΔTm, polyA-polyU, r = 0.5, second melting midpoint: footnote c: biphasic melting curve
Outline: (§4)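 UV melting monitored at 260 nm in 1 cm cuvettes, ligand absorbance subtracted and normalised; ΔTm = Tm(complex) − Tm(free nucleic acid), mean of at least two runs, error ±0.5 °C. Compound tested at r = 0.1, 0.3, 0.5 and 0.7 eq ([compound]/[polynucleotide]) with ctDNA and polyA-polyU.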

[20] = tested on: polyA-polyU (RNA, polymer) A/U; experiment: UV melting at 260 nm; conditions: PBS, I = 0.05 M, cations not specified, pH 7, r = 0.3 [compound]/[polynucleotide], error ±0.5, biphasic, second midpoint 6.38, per base
[21] = tested on: ctDNA; experiment: Thermal melting (ΔTm) of ctDNA; format: binding, calf; conditions: PBS, pH 7
Outline: as §4

[22] = UV–Vis titration, PBS, pH 7, calculated by Scatchard equation

SMILES	Hypochromic effect H/%, polyA-polyU (from experimental data) [1]	MIC [2]	IC50 [3]	IC90 [3]	MIC [5]	log Ks, polyC-polyG [6]	MIC [7]	Hypochromic effect H/%, ctDNA (from experimental data) ([8]; UV–Vis titration, PBS, pH 7)	MIC [9]	MIC [10]	MIC [11]	MIC [12]	MIC [13]	MIC [15]	MIC [16]	IC50 [18]	Hypochromic effect H/%, polyC-polyG [6]	melting point	log Ks, polyA-polyU ([1]; PBS, pH 7)	ΔTm, polyA-polyU, r = 0.1 [19]	other results
c1ccc(-n2cc(COc3ccc(-c4nc5cc(C6=NCCN6)ccc5[nH]4)cc3)nn2)cc1 [Compound 9a]	32.7 ^e %	256 µg/mL (≈ 588 µM)	7.9 ± 0.4 µM	17.2 ± 1.2 µM	> 256 µg/mL	6.21	128 µg/mL (≈ 294 µM)	25.7 ^e %	> 256 µg/mL	128 µg/mL (≈ 294 µM)	128 µg/mL (≈ 294 µM)	≥ 128 µg/mL	> 256 µg/mL	128 µg/mL (≈ 294 µM)	128 µg/mL (≈ 294 µM)						binding ([4]; pH 7, changes too small for accurate calculation, compound 14.8 µM): weak; log Ks ([14]; pH 7, n fixed, per base): 6.21
CC1CS(=O)(=O)CCN1/N=C/c1ccc([N+](=O)[O-])o1 (centres unmarked) [Nifurtimox, nifurtimox]																					IC50 [17]: 4.4 ± 0.7 µM
COc1ccc(-n2cc(COc3ccc(-c4nc5cc(C(=N)N)ccc5[nH]4)cc3)nn2)cc1.Cl.Cl [Compound 7b, 2–(4-((1–(4-Methoxyphenyl)-1H-1,2,3-triazol-4-yl)methoxy)phenyl)-1H-benz[d]imidazole-5-carboximidamide dihydrochloride]	27.9 ^e %	> 256 µg/mL	1.5 ± 0.3 µM	8.1 ± 0.6 µM	> 256 µg/mL	6.27	> 256 µg/mL	22.1 ^e %	> 256 µg/mL	128 µg/mL	256 µg/mL	≥ 128 µg/mL	> 256 µg/mL			302 ± 15 µM	13.7%	195 to 197 °C			
COc1ccc(-n2cc(COc3ccc(-c4nc5cc(C6=NCCN6)ccc5[nH]4)cc3)nn2)cc1.Cl.Cl [Compound 9b, 5–(4,5-Dihydro-1H-imidazol-2-yl)-2–(4-((1–(4-methoxyphenyl)-1H-1,2,3-triazol-4-yl)methoxy)phenyl)-1H-benz[d]imidazole dihydrochloride]	31.6 ^e %	256 µg/mL	1.6 ± 0.4 µM	7.3 ± 0.3 µM	> 256 µg/mL		128 µg/mL	18.9 ^e %	> 256 µg/mL	256 µg/mL	256 µg/mL	≥ 128 µg/mL	> 256 µg/mL	256 µg/mL	256 µg/mL	263 ± 15 µM		197 to 199 °C	5.46	2.49 °C	ΔTm, polyA-polyU, r = 0.3 [19]: 2.67 °C; ΔTm, polyA-polyU, r = 0.3, second melting midpoint [19]: 36.08^c °C; ΔTm, polyA-polyU, r = 0.5 [19]: 2.92 °C; ΔTm, polyA-polyU, r = 0.5, second melting midpoint [19]: 40.93^c °C
COc1ccc(-n2cc(COc3ccc(-c4nc5cc(C(=N)NC(C)C)ccc5[nH]4)cc3)nn2)cc1.Cl.Cl [Compound 8b, N-isopropyl-2–(4-((1–(4-methoxyphenyl)-1H-1,2,3-triazol-4-yl)methoxy)phenyl)-1H-benz[d]imidazole-5-carboximidamide dihydrochloride]		256 µg/mL	1.1 ± 0.3 µM	3.5 ± 0.2 µM	> 256 µg/mL	6.39	128 µg/mL		> 256 µg/mL	64 µg/mL	128 µg/mL		> 256 µg/mL	64 µg/mL	16 µg/mL	> 300 µM	5.05%	188 to 191 °C	5.27	1.17 °C	Hypochromic effect H/%, polyA-polyU [1, 22]: 57.8%; ΔTm, polyA-polyU, r = 0.3 [19]: 1.32 °C; ΔTm, polyA-polyU, r = 0.3, second melting midpoint [19]: 6.38^c °C; ΔTm, polyA-polyU, r = 0.5 [19]: 1.56 °C; ΔTm, polyA-polyU, r = 0.5, second melting midpoint [19]: 8.49^c °C; log Ks ([4]; I = 0.05 M (Table 1 says I = 0.015 M), cations not specified, I = 0.015 M (Methods: 0.05 M), pH 7, per base): 5.27; ΔTm [20]: 1.32 °C; ΔTm, ctDNA, r = 0.5 ([21]; r = 0.5): 3.96 °C; ΔTm, ctDNA, r = 0.7 ([21]; r = 0.7): 4.47 °C; ΔTm, ctDNA, r = 0.3 ([21]; r = [compound]/[polynucleotide] 0.3, error ±0.5 °C): 4.03 °C; Hypochromic effect H/%, ctDNA [8, 22]: 29.7%; log Ks, ctDNA (range r ≥ 0.1) ([8]; footnote f: mixed binding mode, calculated in range r ≥ 0.1): 6.06; log Ks ([14]; pH 7, per base): 6.39
